Experimental data from patent US20260125374A1, “PI3K-ALPHA INHIBITORS AND METHODS OF MAKING AND USING THE SAME” (Relay Therapeutics, Inc., priority 2021, published 2026).
≈ marks a conversion by molar mass, not a printed value.

Assays:
Assay type in all cases: physicochemical
[1] = Solubility study at 37° C. (buffer, water, bio-relevant media, MeOH/DCM)
Method: In addition, residual solids were checked by chiral HPLC to confirm whether racemization occurs.
Accurate 4 mg of I-1 Form A, 5.13 mg of I-3 Form A, 4.63 mg of I-4 Form A was weighed into a 8 mL glass vial, respectively. 2 mL of solubility medium was added. The salt amount used is equivalent to 4 mg anhydrous free form. Obtained suspensions/solutions were stirred at 37° C. at 400 rpm for 2 hours and 24 hours and then centrifuged at 37° C. at 14,000 rpm for 5 min. Supernatants were analyzed by UPLC and PH meter for solubility and pH value, respectively. Residual solids (wet cakes) were characterized by XRPD to determine physical form and then analyzed by HPLC for chiral purity.

[2] = Suspension stability at 25° C.; conditions: for physical form of residual solids (XRPD): 0.5% MC (400 cP)+2% Vitamin E TPGS; for Chiral purity / Purity / Solubility / pH / Chiral purity (solids) / Chiral purity, liquid / Chiral purity, solid: 25° C.
Method: Suspension stability: Suspension stability of I-1 Form A and the 2 salt candidates was investigated in pure water, 0.5% (w/w) Tween 80 aqueous solution and 0.5% (w/w) MC (400 cP)+2% (w/w) Vitamin E TPGS aqueous solution at 25° C. for 2 h and 24 h. Target concentration was 2 mg/mL.
To confirm whether racemization occurs for the 2 salts in 0.5% (w/w) MC (400 cP)+2% (w/w) Vitamin E TPGS aqueous solution, the suspension stability in this vehicle was repeated at target concentration of 10 mg/mL. […] The hygroscopicity of these salts were further investigated.
Accurate 10 mg of I-1 Form A, 12.83 mg of I-3 Form A, 11.58 mg of I-4 Form A was weighed into a 8 mL glass vial, respectively. 5 mL of suspension vehicle was added, respectively. The salt amount used is equivalent to 10 mg anhydrous free form. These suspensions were stirred at 25° C. with 400 rpm. These suspensions were taken out at 2 hours and 24 hours, then centrifuged at 14,000 rpm for 5 min. The supernatants were analyzed by HPLC and pH meter. Solids obtained (wet cakes) were characterized by XRPD and HPLC to determine the chiral purity.
Accurate […] of I-3 Form A, 46.3 mg of I-4 Form A was weighed into a 8 mL glass vial, respectively. 4 mL of solubility medium was added, respectively. The salt amount used is equivalent to 40 mg anhydrous free form. 4 mL of the aqueous vehicle (0.5% (w/w) MC (400 cP) and 2% (w/w) Vitamin E TPGS in water) was added, respectively. These suspensions were stirred at 25° C. with 400 rpm. These suspensions were taken out at 2 hours and 24 hours, then centrifuged at 14,000 rpm for 5 min. The supernatants were analyzed by HPLC for the solubility and chiral purity and analyzed by pH meter. Solids obtained (wet cakes) were characterized by XRPD and HPLC for chiral purity.

[3] = Salt screening (XRPD, chiral purity of hits)
Method: Based on the pKa of I-1 free form, 23 counter ions were selected as salt/cocrystal forming agents. Methanol, acetone and isopropyl acetate were used as screening solvents. 1.0 equivalent of selected counter ions/coformers was applied for salt screening. Slurry equilibration, slow evaporation and anti-solvent addition were used as crystallization methods. In total, about 70 screening experiments were conducted.
About 50 mg of I-1 Form A were added to a suitable amount of solvent and 1.0 equivalent of counter ions were added under stirring at 50° C. for 2 hours and then at 25° C. for at least 12 hours. MeOH, acetone and IPAc were used as screening solvents.
Obtained suspensions were taken out and centrifuged. Solids obtained were analyzed by XRPD and salt screening results were summarized in Table 5.1, Table 5.2, and Table 5.3.

[4] = FaSSIF-V1, pH 6.5, 2 hours, listed as I-3 Form A
[5] = FaSSIF-V1, pH 6.5, 24 hours, listed as I-3 Form A
[6] = FeSSIF-V1, pH 5.0, 2 hours, listed as I-3 Form A
[7] = FeSSIF-V1, pH 5.0, 24 hours, listed as I-3 Form A
[8] = SGF, pH 2.0, 24 hours, listed as I-3 Form A
[9] = Water, 24 hours, listed as I-3 Form A
[10] = pH 2, HCl, 24 hours, listed as I-3 Form A
[11] = 2 mg/mL, 0.5%(w/w) MC(400 cP) and 2%(w/w) Vitamin E TPGS in water, 2 h, listed as I-3 Form A
[12] = 2 mg/mL, 0.5%(w/w) MC(400 cP) and 2%(w/w) Vitamin E TPGS in water, 24 h, listed as I-3 Form A
[13] = 2 mg/mL, 0.5%(w/w) Tween 80 in water, 2 h, listed as I-3 Form A
[14] = 2 mg/mL, 0.5%(w/w) Tween 80 in water, 24 h, listed as I-3 Form A
[15] = 2 mg/mL, Pure water, 2 h, listed as I-3 Form A
[16] = 2 mg/mL, Pure water, 24 h, listed as I-3 Form A
[17] = 10 mg/mL, 0.5(w/w) MC(400 cP) and 2%(w/w) Vitamin E TPGS in water, 2 h, listed as I-3 Form A
[18] = 10 mg/mL, 0.5(w/w) MC(400 cP) and 2%(w/w) Vitamin E TPGS in water, 24 h, listed as I-3 Form A
[19] = crystalline hits of salt screening, listed as I-3 Form A

N#Cc1c(-c2cc(NC(=O)c3cc(F)cc(C(F)(F)F)c3)c3c(c2)C(=O)N[C@H]3c2cc(F)ccc2Cl)ccc2ncnn12 [Compound I-3]
Chiral purity [1, 4]: purity: 96.1%)
Solubility [1, 4]: 52.2 μg/mL (chiral
Chiral purity (solids) [1, 5]: 98.4%)
Solubility [1, 5]: 0.7 µg/mL (≈ 1.15 µM)
pH of supernatant [1, 5]: 6.17
Chiral purity [1, 6]: purity: 97.1%)
Solubility [1, 6]: 176.1 μg/mL(chiral
Chiral purity (solids) [1, 7]: 66.4%)
Solubility [1, 7]: 19.0 µg/mL (≈ 31.2 µM)
pH of supernatant [1, 7]: 4.86
Solubility ([1]; MeOH/DCM (1:2, v/v), 2 hours, listed as I-3 Form A): >75000 µg/mL
Solubility ([1]; MeOH/DCM (1:2, v/v), 24 hours, listed as I-3 Form A): >75000 µg/mL
Solubility ([1]; SGF, pH 2.0, 2 hours, listed as I-3 Form A): 4.2 µg/mL (≈ 6.9 µM)
Chiral purity (solids) [1, 8]: 98.3%)
Solubility [1, 8]: 1.3 µg/mL (≈ 2.13 µM)
pH of supernatant [1, 8]: 1.92
Solubility ([1]; Water, 2 hours, LOQ: 0.5 μg/mL): <LOQ
Solubility ([1]; Water, 24 hours, LOQ: 0.5 μg/mL): LOQ
Chiral purity (solids) [1, 9]: 98.3%)
pH of supernatant [1, 9]: 2.54
solubility in MeOH/DCM (1:2, v/v) ([1]; listed as I-3 Form A): > 75 mg/mL
Solubility ([1]; pH 2, HCl, 2 hours, LOQ: 0.5 μg/mL): <LOQ
Solubility ([1]; pH 2, HCl, 24 hours, LOQ: 0.5 μg/mL): LOQ
Chiral purity (solids) [1, 10]: 98.3%)
pH of supernatant [1, 10]: 1.86
physical form of residual solids (XRPD) ([2]; 10 mg/mL, 2 h sample, listed as I-3 Form A): converted to a hydrate (I-3 Form B)
physical form of residual solids (XRPD) ([2]; 10 mg/mL, 2 h sample, listed as tosylate salt): a form change
physical form of residual solids (XRPD) ([2]; 10 mg/mL, 24 h sample): remained unchanged
Chiral purity [2, 11]: 86.4%
Purity [2, 11]: 99.3%
Solubility [2, 11]: 1.2209 mg/mL (≈ 2010 µM)
pH [2, 11]: 2.76
Chiral purity [2, 12]: 98.3%
Purity [2, 12]: 99.3%
Solubility [2, 12]: 1.9907 mg/mL (≈ 3270 µM)
pH [2, 12]: 2.62
Chiral purity [2, 13]: 95.8%
Chiral purity (solids) [2, 13]: 98.0%
Purity [2, 13]: 99.4%
Solubility [2, 13]: 0.2446 mg/mL (≈ 402 µM)
pH [2, 13]: 3.11
Chiral purity [2, 14]: 98.5%
Chiral purity (solids) [2, 14]: 94.2%
Purity [2, 14]: 99.4%
Solubility [2, 14]: 0.0179 mg/mL (≈ 29.4 µM)
pH [2, 14]: 2.63
Chiral purity (solids) [2, 15]: 98.3%
Purity [2, 15]: 99.6%
pH [2, 15]: 5.59
Chiral purity (solids) [2, 16]: 98.3%
Purity [2, 16]: 99.5%
pH [2, 16]: 2.85
Chiral purity, liquid [2, 17]: 99.4%;
Chiral purity, solid [2, 17]: 97.9%
Solubility [2, 17]: 3.4332 mg/mL (≈ 5640 µM)
pH [2, 17]: 2.30
Chiral purity, liquid [2, 18]: 99.4%;
Chiral purity, solid [2, 18]: 98.3%
Purity [2, 18]: 99.7%
Solubility [2, 18]: 3.0839 mg/mL (≈ 5060 µM)
pH [2, 18]: 2.17
Initial chiral purity ([2]; before suspension, listed as I-3 Form A): Initial chiral purity: 98.6%
Salt screening result (slurry crystallization) ([3]; 1.0 equiv. p-toluenesulfonic acid, Acetone): + (I-3 Form A) (Salt hits)
Salt screening result (slurry crystallization) ([3]; 1.0 equiv. p-toluenesulfonic acid, Isopropyl acetate): + (I-3 Form A) (Salt hits)
Salt screening result (slurry crystallization) ([3]; 1.0 equiv. p-toluenesulfonic acid, MeOH): + (I-3 Form A) (Salt hits)
chiral stability in salt screening and scale up solvents ([3]; MeOH, acetone and IPAc, acetone): good chiral stability
Chiral purity (by HPLC) [3, 19]: 99.8%
Crystallinity (By XRPD) [3, 19]: High
Chiral purity of salt screening solid ([3]; slurry, 1.0 equiv. p-toluenesulfonic acid, Acetone): Chiral purity: 99.8%
